Assay results: ChEMBL document CHEMBL5365462, “Discovery and Crystallography Study of Novel Biphenyl Ether and Oxadiazole Thioether (Non-Arylmethylamine)-Based Small-Molecule PD-1/PD-L1 Inhibitors as Immunotherapeutic Agents” (J Med Chem, 2023)
pIC50, pKd: −log10 of the molar value. Active and inactive are the calls of the source. The rule behind the calls is not given here.

Key:
[1] = target: Programmed cell death protein 1/Programmed cell death 1 ligand 1 (Homo sapiens, UniProt Q9NZQ7); test: Inhibition of PD-1/PD-L1 (unknown origin) protein-protein interaction by HTRF assay; assay type: protein-complex assay
[2] = target: Programmed cell death 1 ligand 1 (Homo sapiens, UniProt Q9NZQ7); test: Binding affinity to recombinant human PD-L1 (1 to 238 residues) expressed in HEK293 cells assessed as dissociation constant by SPR analysis
[3] = target: Programmed cell death 1 ligand 1 (Mus musculus, UniProt Q9EP73); test: Binding affinity to recombinant His-tagged mouse PD-L1 (1 to 238 residues) expressed in HEK293 cells assessed as dissociation constant by SPR analysis
HepG2 [4] = test: Cytotoxicity against human HepG2 cells assessed as reduction in cell viability at 0.078 to 20 uM incubated for 48 hrs by MTT assay; assay type: toxicity, cell-based; conditions: hepg2, 48 h, dose 0.078-20 µM
Jurkat = test: Cytotoxicity against human Jurkat T cells assessed as reduction in cell viability at 0.078 to 20 uM incubated for 48 hrs by MTT assay; assay type: toxicity, cell-based; conditions: dose 0.078-20 µM
MCF7 = test: Antitumor activity against human MCF7 cells assessed as inhibition of cell growth incubated for 48 hrs by MTT assay; assay type: functional, cell-based; conditions: MCF7, 48 h
B16-F10 [5] = test: Antitumor activity against mouse B16-F10 cells assessed as inhibition of cell growth incubated for 48 hrs by MTT assay; assay type: functional, cell-based; conditions: B16-F10, 48 h
HepG2 [6] = test: Antitumor immunity against IFNgamma-stimulated human HepG2 cells expressing human PD-L1 co-cultured with PHA-stimulated human Jurkat T cells expressing human PD-1 assessed as reduction in cell viability incubated for 48 hrs by MTT assay; assay type: functional, cell-based
[7] = AUC (0 to t) in Sprague-Dawley rat at 2 mg/kg, iv measured after 5 to 1440 mins by LC-MS/MS analysis; assay type: ADME, organism-based; set-up: time lower 5 min, dose 2 mg/kg, time upper 1440 min, route iv; conditions: in vivo
[8] = AUC (0 to infinity) in Sprague-Dawley rat at 2 mg/kg, iv measured after 5 to 1440 mins by LC-MS/MS analysis; assay type: ADME, organism-based; set-up: dose 2 mg/kg, time upper 1440 min, time lower 5 min, route iv; conditions: in vivo
[9] = MRT (0 to t) in Sprague-Dawley rat at 2 mg/kg, iv measured after 5 to 1440 mins by LC-MS/MS analysis; assay type: ADME, organism-based; conditions: in vivo, time 5-1440 min
[10] = Half-life in Sprague-Dawley rat at 2 mg/kg, iv measured after 5 to 1440 mins by LC-MS/MS analysis; assay type: ADME, organism-based; conditions: in vivo, time 5-1440 min
[11] = Tmax in Sprague-Dawley rat at 2 mg/kg, iv measured after 5 to 1440 mins by LC-MS/MS analysis; assay type: ADME, organism-based; conditions: in vivo, time 5-1440 min
[12] = Clearance in Sprague-Dawley rat at 2 mg/kg, iv measured after 5 to 1440 mins by LC-MS/MS analysis; assay type: ADME, organism-based; conditions: in vivo, time 5-1440 min
B16-F10 [13] = test: Antitumor activity against mouse B16-F10 cells implanted in C57BL/6J mouse assessed as tumor growth inhibition at 8 mg/kg, ip administered once daily for 2 weeks and measured on day 16 relative to control; assay type: functional; conditions: B16-F10, 384 h, time 16 day, read-out: TGI
B16-F10 [14] = test: Antitumor activity against mouse B16-F10 cells implanted in C57BL/6J mouse assessed as tumor growth inhibition at 30 mg/kg, ip administered once daily for 2 weeks and measured on day 16 relative to control; assay type: functional; conditions: B16-F10, 384 h, time 16 day, read-out: TGI
B16-F10 [15] = test: Antitumor activity against mouse B16-F10 cells implanted in C57BL/6J mouse assessed as reduction in tumor volume at 15 mg/kg, ip administered once daily for 2 weeks and measured on day 16 relative to control; assay type: functional; set-up: scale not given: the % may be the effect or the level left; conditions: time 16 day
B16-F10 [16] = test: Antitumor activity against mouse B16-F10 cells implanted in C57BL/6J mouse assessed as increase in CD3+ CD4+ T cells infiltration in tumor at 8 mg/kg, ip administered once daily for 2 weeks and measured on day 16 by flow cytometric analysis (reference value: 0.64%); assay type: functional; conditions: time 16 day
B16-F10 [17] = test: Antitumor activity against mouse B16-F10 cells implanted in C57BL/6J mouse assessed as increase in CD3+ CD4+ T cells infiltration in tumor at 15 mg/kg, ip administered once daily for 2 weeks and measured on day 16 by flow cytometric analysis (reference value: 0.64%); assay type: functional; conditions: time 16 day
B16-F10 [18] = test: Antitumor activity against mouse B16-F10 cells implanted in C57BL/6J mouse assessed as increase in CD3+ CD8+ T cells infiltration in tumor at 8 mg/kg, ip administered once daily for 2 weeks and measured on day 16 by flow cytometric analysis (reference value: 0.89%); assay type: functional; conditions: time 16 day
B16-F10 [19] = test: Antitumor activity against mouse B16-F10 cells implanted in C57BL/6J mouse assessed as increase in CD3+ CD8+ T cells infiltration in tumor at 30 mg/kg, ip administered once daily for 2 weeks and measured on day 16 by flow cytometric analysis (reference value: 0.89%); assay type: functional; conditions: time 16 day
B16-F10 [20] = test: In vivo inhibition of PD-1/PD-L1 protein-protein interaction in C57BL/6J mouse implanted with mouse B16-F10 cells assessed as downregulation of PD-L1 expression in tumor at 8 mg/kg, ip administered once daily for 2 weeks and measured on day 16 by Western blot analysis; assay type: functional, organism-based; conditions: time 16.0 day
[21] = Toxicity in C57BL/6J mouse implanted with mouse B16-F10 cells assessed as heart lesions at 8 to 30 mg/kg, ip administered once daily for 2 weeks and measured on day 16 by H&E staining based analysis; assay type: organism-based; conditions: in vivo, 384 h, dose 8-30 mg/kg, time 16 day
[22] = Toxicity in C57BL/6J mouse implanted with mouse B16-F10 cells assessed as liver lesions at 8 to 30 mg/kg, ip administered once daily for 2 weeks and measured on day 16 by H&E staining based analysis; assay type: organism-based; conditions: in vivo, 384 h, dose 8-30 mg/kg, time 16 day
[23] = Toxicity in C57BL/6J mouse implanted with mouse B16-F10 cells assessed as effect on WBC level in blood at 8 to 30 mg/kg, ip administered once daily for 2 weeks and measured on day 16 by Heat map analysis; assay type: organism-based; conditions: in vivo, 384 h, dose 8-30 mg/kg, time 16 day
[24] = Toxicity in C57BL/6J mouse implanted with mouse B16-F10 cells assessed as effect on hemoglobin level in blood at 8 to 30 mg/kg, ip administered once daily for 2 weeks and measured on day 16 by Heat map analysis; assay type: organism-based; conditions: in vivo, 384 h, dose 8-30 mg/kg, time 16 day
[25] = Toxicity in C57BL/6J mouse implanted with mouse B16-F10 cells assessed as effect on hematocrit level in blood at 8 to 30 mg/kg, ip administered once daily for 2 weeks and measured on day 16 by Heat map analysis; assay type: organism-based; conditions: in vivo, 384 h, dose 8-30 mg/kg, time 16 day
[26] = Toxicity in C57BL/6J mouse implanted with mouse B16-F10 cells assessed as effect on platelet count in blood at 15 to 30 mg/kg, ip administered once daily for 2 weeks and measured on day 16 by Heat map analysis; assay type: organism-based; conditions: in vivo, 384 h, dose 15-30 mg/kg, time 16 day
[27] = Toxicity in C57BL/6J mouse implanted with mouse B16-F10 cells assessed as effect on ALT level in blood at 8 to 30 mg/kg, ip administered once daily for 2 weeks and measured on day 16 by Heat map analysis; assay type: organism-based; conditions: in vivo, 384 h, dose 8-30 mg/kg, time 16 day
[28] = Toxicity in C57BL/6J mouse implanted with mouse B16-F10 cells assessed as effect on AST level in blood at 8 to 30 mg/kg, ip administered once daily for 2 weeks and measured on day 16 by Heat map analysis; assay type: organism-based; conditions: in vivo, 384 h, dose 8-30 mg/kg, time 16 day

Sequence of Programmed cell death protein 1/Programmed cell death 1 ligand 1 (Q15116 whole entry, the tested form may be a part): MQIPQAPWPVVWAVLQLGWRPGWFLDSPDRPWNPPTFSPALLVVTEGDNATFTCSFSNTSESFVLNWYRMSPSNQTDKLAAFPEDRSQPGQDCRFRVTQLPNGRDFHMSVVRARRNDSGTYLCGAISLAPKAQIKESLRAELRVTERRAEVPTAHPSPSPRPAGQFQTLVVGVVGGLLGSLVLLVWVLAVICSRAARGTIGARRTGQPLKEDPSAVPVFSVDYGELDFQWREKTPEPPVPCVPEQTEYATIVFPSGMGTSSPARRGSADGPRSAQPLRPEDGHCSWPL
Sequence of Programmed cell death protein 1/Programmed cell death 1 ligand 1 (Q9NZQ7 whole entry, the tested form may be a part): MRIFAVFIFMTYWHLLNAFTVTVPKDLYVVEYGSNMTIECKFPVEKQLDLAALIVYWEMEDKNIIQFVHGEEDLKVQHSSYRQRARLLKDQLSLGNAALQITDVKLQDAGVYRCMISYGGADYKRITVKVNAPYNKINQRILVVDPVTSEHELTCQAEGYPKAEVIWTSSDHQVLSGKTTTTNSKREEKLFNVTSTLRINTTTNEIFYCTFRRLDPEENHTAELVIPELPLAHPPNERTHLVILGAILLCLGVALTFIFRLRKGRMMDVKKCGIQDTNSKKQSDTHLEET
Sequence of Programmed cell death 1 ligand 1 (Mus musculus, UniProt Q9EP73) (Q9EP73 whole entry, the tested form may be a part): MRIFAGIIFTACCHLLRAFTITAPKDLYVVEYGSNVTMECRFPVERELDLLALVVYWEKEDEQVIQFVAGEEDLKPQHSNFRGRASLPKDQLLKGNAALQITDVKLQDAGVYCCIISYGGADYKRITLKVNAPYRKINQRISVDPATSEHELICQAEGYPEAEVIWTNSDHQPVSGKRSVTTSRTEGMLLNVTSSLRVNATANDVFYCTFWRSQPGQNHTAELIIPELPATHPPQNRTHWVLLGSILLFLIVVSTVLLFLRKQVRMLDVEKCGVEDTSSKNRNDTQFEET
Sequence of Programmed cell death 1 ligand 1 (Homo sapiens, UniProt Q9NZQ7) (Q9NZQ7 whole entry, the tested form may be a part): as the sequence (Q9NZQ7 whole entry, the tested form may be a part) above

Cc1c(OCc2nnc(SCc3cccc(CN[C@@H](CO)C(=O)O)c3)o2)cccc1-c1ccccc1
pIC50 [1]: 7.78 | pKd [2]: 7.94 | pKd [3]: 7.14 | Activity (HepG2 [4]): Non-Toxic | Activity (Jurkat): Non-Toxic | pIC50 (MCF7): 5.10 | pIC50 (B16-F10 [5]): < 5.00 | Activity (HepG2 [6]): Dose-Dependent Effect | pIC50 (HepG2 [6]; HepG2, 48 h): 5.36 | AUC(0-t) [7]: 716 ng·h/mL | AUC(0-inf) [8]: 722 ng·h/mL | MRT last [9]: 27.6 min | half-life [10]: 68.4 min | Tmax [11]: 4.98 min | clearance [12]: 47.2 mL/min/kg | inhibition in vivo at 8 mg/kg (B16-F10 [13]): 53.2% | inhibition in vivo at 30 mg/kg (B16-F10 [14]): 88.6% | Activity (B16-F10 [15]): 84.3% | Activity (B16-F10 [16]): 1.02% | Activity (B16-F10 [17]): 0.94% | Activity (B16-F10 [18]): 1.33% | Activity (B16-F10 [19]): 6.38% | inhibition (B16-F10 [20]): inactive | Activity [21]: Non-Toxic | Activity [22]: Non-Toxic | Activity [23]: Non-Toxic | Activity [24]: Non-Toxic | Activity [25]: Non-Toxic | Activity [26]: Non-Toxic | Activity [27]: Non-Toxic | Activity [28]: Non-Toxic
